{"source": "patent US20250213652A1", "about": "“COMPOSITIONS AND THEIR USE IN METHODS FOR TREATING INTESTINAL INFLAMMATION” (REVOLO BIOTHERAPEUTICS LIMITED, priority 2022, published 2025)", "key": {"CD69 [1]": {"test_system": "CD69", "test": "Surface expression of CD69 and CD39 on Tregs from PBMCs, flow cytometry", "type": "cell-based, human", "conditions": "20 μg/mL, 20-72 h at 37° C., PBMCs from two healthy donors", "procedure": "FIG. 8 depicts the mean fluorescent intensity of surface expression of CD69 and CD39 on Tregs from peripheral blood mononuclear cells (PBMCs) cultured with 20 μg/mL IRL201805 for 20-72 h at 37° C.\nIn the present study, PBMCs were isolated from two healthy donors. PBMCs were then incubated with IRL201805 (20 μg/mL) for 20-72 h at 37° C. Flow cytometry was used to measure mean fluorescent intensity and assess surface expression of CD69 and CD39 on Tregs from the PBMCs."}, "CD69 [2]": {"test_system": "CD69", "test": "Surface CD154 and CD69 activation markers on T-lymphocytes from PBMCs", "type": "cell-based, human", "conditions": "20 μg/mL, 20 hours at 37° C., PBMCs from four healthy donors, p=0.008", "excerpt": "FIG. 11A-C provides bar graphs showing the effects of IRL201805 on the expression of surface CD154 and CD69 activation markers on T-lymphocytes from PBMCs: Tregs (FIG. 11A); effector T cells (Teffs; FIG. 11B); and CD8 T cells (FIG. 11C). Results are from PBMCs isolated from four healthy donors. Mean±SD shown. P=values represent paired sample t-test. NS=not significant.\nThe present study assessed the effects of 1805 on the expression of surface CD154 and CD69 activation markers on T-lymphocytes from PBMC of Tregs, Teffs, and CD8 T cells. PBMCs isolated from four healthy donors were cultured with or without 20 μg/mL IRL201805 for 20 hours at 37° C."}, "C57-bl/6 mice": {"test_system": "C57-bl/6 mice", "test": "Dextran sulphate sodium (DSS)-induced murine model of ulcerative colitis", "type": "in vivo", "conditions": "5% DSS", "procedure": "In the present study, the DDS murine model of UC will be used to evaluate the efficacy of BiP analogs such as IRL201805 (SEQ ID NO:1).\nAdult C57-bl/6 mice are randomly allocated to experimental groups and allowed to acclimatize for one week. From Day-2, treatments are administered in accordance with the administration schedule below. On Day 0, drinking water is replaced by a 5% dextran sulphate sodium (DSS) in water (excluding group 1 which remains on normal drinking water throughout). Animals are given ad libitum access to the 5% DSS solution. From Day 0 until the end of the experiment on Day 7, animals are monitored daily for clinical signs of colitis to include: bodyweight loss, loose stools and/or diarrhea and presence of occult or gross blood in the stools. […]\nFrom Day 0 until the end of the experiment, animals are monitored daily for clinical signs of colitis to include bodyweight loss, loose stools and/or diarrhea and presence of blood, occult or gross, in the stools.\n(§1) At termination, colon from half the animals in each group are transferred in tissue fixative, then processed for paraffin-embedding in a ‘swiss roll’ format. These samples are sectioned and stained with hematoxylin and eosin (H&E) and up to two sections per animal are scored by a qualified histopathologist according to a semi-quantitative scoring system. […]"}, "RAG2−/− mice": {"test_system": "RAG2−/− mice", "test": "CD4+CD45RBhigh T cell adoptive transfer murine model of intestinal inflammation", "type": "in vivo", "excerpt": "In the present study, intestinal inflammation is initiated with syngeneic splenic CD4^+CD45RB^high T cell adoptive transfer into T and B cell deficient recipient mice.^37 The CD4^+CD45RB^high T cell population contains mainly naïve T cells primed for activation that are capable of inducing chronic small bowel and colonic inflammation. This animal model allows the modification of key experimental variables, including both innate and adaptive immune cell populations, to answer biologically relevant questions relating to disease pathogenesis. […]\nFrom Day 21 until the end of the experiment on Day 49, animals are monitored daily for clinical signs of colitis to include: bodyweight loss, loose stools and/or diarrhea. On Day 49, animals are culled, the colon dissected out, and colon weight and length measured. […]\nFrom Day 21 until the end of the experiment, animals are monitored daily for clinical signs of colitis to include bodyweight loss, loose stools and/or diarrhea.\nas §1"}, "STAT5B": {"test_system": "STAT5B", "test": "RNAseq gene transcript levels, STAT5B", "type": "cell-based, human", "conditions": "monocytes from three healthy individuals", "procedure": "(§2) FIG. 9A-B illustrates the effects of 20 µg/mL IRL201805 on JAK-STAT signaling pathway at the transcript and protein level. FIG. 9A provides the RNAseq analysis of gene transcript levels of key signaling genes involved in CD69 activation. FIG. 9B provides the immunoblot of p-STAT5 levels in cell lysates from untreated and IRL1805 treated PBMCs.\nIn the present study, the effects of IRL201805 on JAK-STAT signaling pathway were assessed at the transcript and protein level. […]\n(§3) RNAseq analysis was used to assess gene transcript levels of key signaling genes involved in CD69 activation."}, "galectin-1 (Gal-1)": {"test_system": "galectin-1 (Gal-1)", "test": "TMT quantitative proteomics of monocyte cell surface, Gal-1", "type": "cell-based", "conditions": "human monocytes (n=4), 1 hour", "excerpt": "(§4) FIG. 10B provides a bar graph showing the effects of IRL201805 on CD69 ligands, galectin-1 (Gal-1) and S100A8/A9, as detected by TMT quantitative proteomics.\n(§5) The potential ligands, Gal-1 and S100A8/A9, are known to bind to CD69.43 In order to examine the expression of and influence the ability of T cells to sustain a Treg phenotype, the present study investigated the effects of 1805 on the expression of Gal-1 and S100A8/A9 in APCs (monocytes). Human monocytes isolated from healthy individuals (n=4) were exposed to 1805 for 1 hour at levels of both Gal-1 and S100A8/A9 proteins.\n(§6) The abundance of Gal-1 and S100A8/A9 protein at the cell surface were detected by tandem mass tag (TMT) quantitative proteomics."}, "SOCS3": {"test_system": "SOCS3", "test": "RNAseq gene transcript levels, SOCS3", "type": "cell-based, human", "conditions": "20 μg/mL, 24 hour post treatment", "procedure": "as §2\n(§7) In the present study, the effects of IRL201805 on JAK-STAT signaling pathway were assessed at the transcript and protein level. PBMCs were isolated from a healthy subject and treated for 24 h with 20 μg/mL IRL201805.\nas §3"}, "[3]": {"test_system": "CD69+/CD39+ regulatory T cells (Tregs)", "test": "Colon punch biopsies from IBD patients, flow cytometry of CD69+/CD39+ Tregs", "type": "cell-based, human", "conditions": "20 μg/mL, 12-14 hours, inflamed colonic tissue compared to non-inflamed tissue from the same patient", "procedure": "FIG. 6A-E provides an outline of the procedure used to assess the effects of human primary immune cells ex vivo within inflamed and non-inflamed colon tissue treated with IRL201805.\n(§8) In the present study, punch biopsies (2 mm^2) of inflamed and non-inflamed colon tissues were obtained from each consenting IBD patient with hospital ethical approval, as illustrated in FIG. 6A-E. Tissue biopsies were subsequently incubated for 12-14 hours with or without IRL201805 (20 μg/mL) and assessed for CD69+/CD39+ regulatory T cells (Tregs)."}, "p-STAT5 [4]": {"test_system": "p-STAT5", "test": "Colon punch biopsies from IBD patients, p-STAT5 by flow cytometry", "type": "cell-based, human", "conditions": "data not shown", "procedure": "as §8"}, "S100A9": {"test_system": "S100A9", "test": "Mass spec analysis of S100A9 post-translational modification in monocytes", "type": "cell-based", "conditions": "human monocytes", "excerpt": "as §4, §5"}, "STAT5A": {"test_system": "STAT5A", "test": "RNAseq gene transcript levels, STAT5A", "type": "cell-based, human", "conditions": "monocytes from three healthy individuals", "procedure": "as §2, §7, §3"}, "S100A8/A9": {"test_system": "S100A8/A9", "test": "TMT quantitative proteomics of monocyte cell surface, S100A8/A9", "type": "cell-based", "conditions": "human monocytes (n=4), 1 hour", "excerpt": "as §4, §5, §6"}, "JAK3": {"test_system": "JAK3", "test": "RNAseq gene transcript levels, JAK3", "type": "cell-based, human", "conditions": "20 μg/mL, 24 hour post treatment", "procedure": "as §2, §7, §3"}, "p-STAT5 [5]": {"test_system": "p-STAT5", "test": "Immunoblot of p-STAT5 in PBMC cell lysates", "type": "cell-based, human", "conditions": "20 μg/mL, 24 hours, compared to untreated PBMCs", "procedure": "as §2, §7\nImmunoblotting of PBMC cell lysates with recombinant anti-STAT5 (phospho Y694) antibody [E208] (ab32364) (Abcam, ab32364) was used to assess the p-STAT5 levels in from untreated and IRL1805 treated PBMCs."}, "PBMCs": {"test_system": "PBMCs", "test": "p-STAT5 status and FoxP3 in T cell subsets of treated PBMCs (Table 4)", "type": "cell-based", "excerpt": "In Tregs, CD69 is thought to promote CD39 surface expression, FoxP3 transcription, and STAT5 phosphorylation leading to STAT3 inhibition. The present study assessed the effects of IRL1805 on p-STAT5. […] Treatment of PBMCs with IRL201805 led to changes in p-STAT5 status of CD4/CD8 T cells and increased 3-fold the level of FoxP3 transcription (see Table 4)."}, "STAT3 phosphorylation": {"test_system": "STAT3 phosphorylation", "test": "STAT3 phosphorylation in human lymphocytes (previous unpublished data)", "type": "cell-based"}}, "data": [{"substance": "IRL201805: a modified analog of GRP78 (BiP analog, SEQ ID NO:1) being developed for the treatment of autoimmune disease", "values": [{"measurement": "duration of sustained CD69 expression on CD154- cells", "setting": "CD69 [1]", "result": "at least 72 h"}, {"measurement": "increase of CD69 on the cell surface of Tregs", "setting": "CD69 [2]", "result": 2, "unit": "fold"}, {"measurement": "clinical signs of colitis (bodyweight loss, loose stools and/or diarrhea)", "setting": "C57-bl/6 mice; 1 mg/kg IV Day −2, 0, 3, 6", "result": "significant reduction in clinical signs of colitis"}, {"measurement": "histopathology severity scores", "setting": "C57-bl/6 mice; 1 mg/kg IV, colon sections H&E, Day 7", "result": "significant reduction in severity scores"}, {"measurement": "clinical signs of colitis (bodyweight loss, loose stools and/or diarrhea)", "setting": "RAG2−/− mice; IV from Day 21, dose TBC", "result": "significant reduction in clinical signs of colitis"}, {"measurement": "histopathology severity scores", "setting": "RAG2−/− mice; T cell transfer colitis, colon sections H&E, Day 49", "result": "significant reduction in severity scores"}, {"measurement": "transcript levels of STAT5B", "setting": "STAT5B", "result": "did not affect"}, {"measurement": "Gal-1 expression on the cell surface", "setting": "galectin-1 (Gal-1)", "result": "not altered"}, {"measurement": "increase of SOCS3 gene transcript level", "setting": "SOCS3", "result": "approximately 10 fold"}, {"measurement": "increase in double positive CD69+/CD39+ Tregs", "setting": "[3]", "result": 20, "unit": "%"}, {"measurement": "p-STAT5 in subsets of immune cells by flow cytometry", "setting": "p-STAT5 [4]", "result": "increased p-STAT5"}, {"measurement": "increase of phosphorylation of S100A9", "setting": "S100A9; 1 hour", "result": 58, "unit": "%"}, {"measurement": "trimethylation post-translational modifications on threonine 113 on S100A9", "setting": "S100A9; mass spec", "result": "increased trimethylation"}, {"measurement": "transcript levels of STAT5A", "setting": "STAT5A", "result": "did not affect"}, {"measurement": "S100A8/A9 expression on the cell surface", "setting": "S100A8/A9", "result": "not altered"}, {"measurement": "increase of JAK3 gene transcript level", "setting": "JAK3", "result": "approximately 10 fold"}, {"measurement": "p-STAT5 levels by immunoblot", "setting": "p-STAT5 [5]", "result": "increased levels"}, {"measurement": "p-STAT5 in subsets of immune cells", "setting": "PBMCs; PBMCs", "result": "increased p-STAT5"}, {"measurement": "increase of the level of FoxP3 transcription", "setting": "PBMCs; PBMCs, versus untreated", "result": 3, "unit": "fold"}, {"measurement": "% CD4+ve", "setting": "PBMCs; treated PBMCs", "result": 7.1, "unit": "%"}, {"measurement": "% CD8+ve", "setting": "PBMCs; treated PBMCs", "result": 3.2, "unit": "%"}, {"measurement": "% FoxP3 + Tregs", "setting": "PBMCs; treated PBMCs", "result": 0.9, "unit": "%"}, {"measurement": "CD25hi/CD127lo Tregs", "setting": "PBMCs; treated PBMCs", "result": 3.2}]}, {"substance": "binding immunoglobulin protein [BiP]", "values": [{"measurement": "STAT3 phosphorylation", "setting": "STAT3 phosphorylation", "result": "inhibit STAT3 phosphorylation"}]}]}
